No end group written: not given here.
Tests used:
recombinant HLA B*0702 = recombinant HLA B*0702 (Homo sapiens, UniProt P01889); assay: biochemical; assay type: binding
[1] = test system: CD8^+ T-cells specific for the “majority”; assay: Cross-reactivity of CD8+ T-cells with UL49 AA 49-57 variants; assay type: cell-based, human

Sequence	IC50 (recombinant HLA B*0702)	cross-reactivity of majority-specific CD8^+ T-cells [1]
RPRGEVREFL	< 2 nM	–
RPRGKVRFL	–	not cross-reactive
